Source: patent publication US20070209082A1, “Txr1 and enhanced taxane sensitivity based on the modulation of a pathway mediated thereby” (priority 2005, published 2007)
Like-named read-outs stand apart in the source and are kept apart here. Ends that are not written are not given here.

What was measured:
Clone 18 [1] = test: MTT assay of drug sensitivity, Clone 18 cells; conditions: for Effect on taxol resistance / taxol cytotoxicity of clone 18: agent added with taxol, MTT assay; for Fold of resistance (Clone 18/M2182tTA): IC50 of clone 18 divided by IC50 of M2182tTA
Method: (§1) For subsequent plate assays of the effects of taxol and other drugs on colony formation, 1×10^4 cells per 10 cm plate or per each well of six-well plate were seeded one day prior to drug treatment at the concentrations indicated. After 7 to 14 days exposure to drug, the resistant colonies were stained with 0.5% crystal violet solution and photographed. For quantitative determination of the surviving fraction, the collection of crystal violet stained colonies were incubated with 0.5 ml of DMSO overnight and the absorbance at 570 nm of dye extracted solution was measured. The fraction of surviving cells was calculated relative to non-treated controls. Results were averaged from at least two to three independent experiments. For IC50 determination, 3×10^3 cells per well of a 96-well plate were seeded one day prior to treatment by serially diluted drugs or in combination with indicated protein/peptides. The viability of treated cells was quantified by their ability to reduce tetrazolium salt 3-(4,5-dimethylthiazol-2-y)-2,5-diphenyl tetrasodium bromide (MTT, Sigma) to a formazan dye whose absorbance is detectable at 570 nm. The IC50 value was defined as the dose of taxol that inhibited cell growth by 50%.

M2182tTA = test: MTT assay of drug sensitivity, M2182tTA cells; format: cell-based, human; conditions: for Effect on killing of naive M2182tTA cells by taxol: agent added with taxol
Method: as §1

Clone 18 [2] = tested on: Clone 18
Method: as §1

Clone 18 cells = test: TUNEL assay of apoptosis, clone 18 cells; format: cell-based, human; conditions: clone 18, TSP-1 plus taxol
Method: For subsequent plate assays of the effects of taxol and other drugs on colony formation, 1×10^4 cells per 10 cm plate or per each well of six-well plate were seeded one day prior to drug treatment at the concentrations indicated. After 7 to 14 days exposure to drug, the resistant colonies were stained with 0.5% crystal violet solution and photographed. For quantitative determination of the surviving fraction, the collection of crystal violet stained colonies were incubated with 0.5 ml of DMSO overnight and the absorbance at 570 nm of dye extracted solution was measured. The fraction of surviving cells was calculated relative to non-treated controls. Results were averaged from at least two to three independent experiments. For IC50 determination, 3×10^3 cells per well of a 96-well plate were seeded one day prior to treatment by serially diluted drugs or in combination with indicated protein/peptides. The viability of treated cells was quantified by their ability to reduce tetrazolium salt 3-(4,5-dimethylthiazol-2-y)-2,5-diphenyl tetrasodium bromide (MTT, Sigma) to a formazan dye whose absorbance is detectable at 570 nm. The IC50 value was defined as the dose of taxol that inhibited cell growth by 50%. […]

[3] = agent added with adriamycin, etoposide, vinblastine, vincristine or epothilone B

CC[C@]1(O)C[C@@H]2CN(CCc3c([nH]c4ccccc34)[C@@](C(=O)OC)(c3cc4c(cc3OC)N(C)[C@H]3[C@@](O)(C(=O)OC)[C@H](OC(C)=O)[C@]5(CC)C=CCN6CC[C@]43[C@@H]65)C2)C1 [Vinblastine, vinblastine]
Reduced killing of clone 18 cells (versus parental cells) (Clone 18 [1]): No evidence of reduced killing

CC[C@]1(O)C[C@H]2CN(CCc3c([nH]c4ccccc34)[C@@](C(=O)OC)(c3cc4c(cc3OC)N(C=O)[C@H]3[C@@](O)(C(=O)OC)[C@H](OC(C)=O)[C@]5(CC)C=CCN6CC[C@]43[C@@H]65)C2)C1 [Vincristine, vincristine]
Reduced killing of clone 18 cells (versus parental cells) (Clone 18 [1]): No evidence of reduced killing

pertussus toxin
Cells that survive taxol treatment (M2182tTA; M2182tTA, 0.5 μg/ml pertussis toxin, MTT assay): An increase in cells that survive taxol treatment

COc1cc([C@@H]2c3cc4c(cc3[C@@H](O[C@@H]3O[C@@H]5CO[C@@H](C)O[C@H]5[C@H](O)[C@H]3O)[C@H]3COC(=O)[C@H]23)OCO4)cc(OC)c1O [Etoposide, etoposide]
Reduced killing of clone 18 cells (versus parental cells) (Clone 18 [1]): No evidence of reduced killing

GVITRIR (human) [ABT-510]
Effect on taxol resistance / taxol cytotoxicity of clone 18 (Clone 18 [1]): absence of any detectable effect
Effect on taxol resistance / taxol cytotoxicity of clone 18 (Clone 18 [1]; listed as ABT510): no effect
Effect on killing of naive M2182tTA cells by taxol (M2182tTA; MTT assay): not and absence of any detectable effect

COc1cccc2c1C(=O)c1c(O)c3c(c(O)c1C2=O)C[C@@](O)(C(=O)CO)C[C@@H]3O[C@H]1C[C@H](N)[C@H](O)[C@H](C)O1 [Adriamycin, adriamycin]
Reduced killing of clone 18 cells (versus parental cells) (Clone 18 [1]): No evidence of reduced killing

CC(=O)O[C@H]1C(=O)[C@@]2(C)[C@H]([C@H](OC(=O)c3ccccc3)[C@]3(O)C[C@H](OC(=O)[C@H](O)[C@@H](NC(=O)c4ccccc4)c4ccccc4)C(C)=C1C3(C)C)[C@]1(OC(C)=O)CO[C@@H]1C[C@@H]2O [Taxol, Paclitaxel]
Fold of resistance (Clone 18/M2182tTA) (Clone 18 [1]): approximately two and a half-fold greater

KRFYGGMWKK [4NGG]
Effect on taxol resistance / taxol cytotoxicity of clone 18 (Clone 18 [1]): no effect

TSP-1: TSP-1 purified from human platelets; extracellular matrix bound adhesive glycoprotein
Effect on taxol resistance / taxol cytotoxicity of clone 18 (Clone 18 [2]): dose-dependent partial reversal
Ability of TSP-1 alone to reduce survival and induce apoptosis (Clone 18 [1]; TSP-1 alone, at the dosage added to cultures of clone 18 cells): only limited ability to reduce survival and induce apoptosis
Effect on killing of clone 18 cells by other chemotherapeutic agents (Clone 18 [1]; [3]): no effects
Taxol-induced apoptosis (Clone 18 cells): dramatically and synergistically increased
Effect on sensitivity of M2182tTA cells to other chemotherapeutic drugs (M2182tTA; [3]): sensitization was not observed
Effect on killing of naive M2182tTA cells by taxol (M2182tTA; MTT assay): reduced survival

KRFYVVMWKK [4N1K]
Effect on taxol resistance / taxol cytotoxicity of clone 18 (Clone 18 [1]): dose-dependent partial reversal

C/C(=C\c1csc(C)n1)[C@@H]1C[C@@H]2O[C@]2(C)CCC[C@H](C)[C@H](O)[C@@H](C)C(=O)C(C)(C)[C@@H](O)CC(=O)O1 [Epothilone B]
Reduced killing of clone 18 cells (versus parental cells) (Clone 18 [1]): No evidence of reduced killing
Fold of resistance (Clone 18/M2182tTA) (Clone 18 [1]): 0.9
